Reference: the supplement of paper PMC10307832

Legend:
Experiment in all cases: relative viability (nuclei count vs DMSO), 5 days (fraction); higher = more cells survive
[1] = compound: CC1=NC=CC(=C1)C2=CC=C(C=C2)CC(=O)NC3=CC=C(C=C3)C4=CN=CC=C4 [Wnt-C59] + COc1cc2c(Oc3ccc(NC(=O)C4(C(=O)Nc5ccc(F)cc5)CC4)cc3F)ccnc2cc1OCCCN1CCOCC1 [Foretinib] (partner 0.25 µM)
Outline: (§1)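 Cells from lung cancer lines were seeded into 1536-well plates and, one day later, dosed by pin tool. Treatments were either a single drug or a fixed dose of an anchor drug with five library-drug doses (not always all listed) in √10 steps. After 5 days, nuclei were stained in a one-step fixation (final 0.05% Triton X-100, 1% formaldehyde, 1 ug/ml Hoechst) and counted on 4× images, and relative viability is the treated-to-vehicle nuclei ratio, as the median of duplicate plates.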

[2] = compound: CS(=O)(=O)CCNCc1ccc(-c2ccc3ncnc(Nc4ccc(OCc5cccc(F)c5)c(Cl)c4)c3c2)o1 [Lapatinib] + CS(=O)(=O)N1CCN(Cc2cc3nc(-c4cccc5[nH]ncc45)nc(N4CCOCC4)c3s2)CC1 [Pictilisib] (partner 1 µM)
Outline: as §1

[3] = compound: CC1=NC=CC(=C1)C2=CC=C(C=C2)CC(=O)NC3=CC=C(C=C3)C4=CN=CC=C4 [Wnt-C59] + C[C@@H](Oc1cc(-c2cnn(C3CCNCC3)c2)cnc1N)c1c(Cl)ccc(F)c1Cl [Crizotinib] (partner 1 µM)
Outline: as §1

[4] = compound: CS(=O)(=O)CCNCc1ccc(-c2ccc3ncnc(Nc4ccc(OCc5cccc(F)c5)c(Cl)c4)c3c2)o1 [Lapatinib] + Nc1ncn([C@H]2C[C@H](O)[C@@H](CO)O2)c(=O)n1 [Decitabine] (partner 2 µM)
Outline: as §1

Cell Line	relative viability ([1]; first compound 0.001 µM)	relative viability ([1]; first compound 0.01 µM)	relative viability ([1]; first compound 0.03162 µM)	relative viability ([1]; first compound 0.1 µM)	relative viability ([2]; first compound 0.2 µM)	relative viability ([2]; first compound 0.6325 µM)	relative viability ([2]; first compound 2 µM)	relative viability ([3]; first compound 0.001 µM)	relative viability ([3]; first compound 0.01 µM)	relative viability ([3]; first compound 0.03162 µM)	relative viability ([3]; first compound 0.1 µM)	relative viability ([4]; first compound 0.02 µM)	relative viability ([4]; first compound 0.2 µM)	relative viability ([4]; first compound 0.6325 µM)	relative viability ([4]; first compound 2 µM)	relative viability ([2]; first compound 0.02 µM)	relative viability ([2]; first compound 0.06325 µM)	relative viability ([4]; first compound 0.06325 µM)
LK-2	1.28	1.02	1.46	1.25	0.424	0.615	0.531	0.228	0.238	0.212	0.259	0.196	0.331	0.363	0.411			
NCI-H322M	0.879	0.802	0.896	0.68	0.483	0.504	0.404	0.819	0.937	0.877	0.841	0.632	0.648	0.567	0.555	0.555	0.31	0.552
NCI-H650	0.956	1.07	1.07	0.947	0.888	0.782	1.04	0.699	0.75	0.874	0.691		0.328	0.324	0.343		0.918	0.319
NCI-H596	0.885	0.899	0.835	0.898	0.4	0.415	0.407	0.972	1	1.32	0.932		0.793	1.04	0.957	0.39	0.388	0.979
PC-3 [JPC-3]	1.05	1.12	1.14	1.05	0.621	0.769	0.512	0.979	1.01	1.09	0.965			0.954	0.598		0.687	0.786
NCI-H1355	0.949	0.922	1.01	0.876	0.496	0.499	0.285	1.01	1.05	1.06	0.966	0.352	0.333	0.307	0.353		0.419	0.33
COR-L23	0.993	0.916	0.853	0.913	0.984	0.92	0.733	0.653	0.567	0.637	0.67	0.516	0.456	0.417	0.422	0.681	0.583	0.421
201T	1.19	1.15	1.04	1.15	0.675	0.659	0.638	1.01	1.02	1.01	1.03	0.845	0.813	0.827	0.817	0.603	0.656	0.812
A549	1.09	0.969	0.974	0.906	0.468	0.456	0.506	0.802	0.676	0.752	0.676		0.305	0.291	0.133	0.477	0.401	0.224
